Test results published in patent publication US20110190123A1, “SLOW-RELEASE FORMULATIONS CONTAINING QUILLAY EXTRACTS, FOR CONTROLLING WHEAT TAKE-ALL DISEASE” (priority 2008, published 2011).

Experiments:
Ggt = experiment: Plant pot experiments, control of take-all in wheat (Take-All Index); type: in vivo, Gaeumannomyces graminis
Method: Agronomic evaluation of control effectiveness of the formulations developed on the Ggt fungus was conducted through the establishment of 26 experiments in plant pots. These experiments allowed to evaluate new formulations, or correct defective aspects of the formulations developed. Evaluation methodology was made under greenhouse and awning conditions, considering: soil use of Yerbas Buenas ([…] Region VII), which was sterilized by autoclave and inoculated with Ggt grown in oat grains during 40 days. Soil was placed in PVC plant pots arranged on a wooden plate, where it was seeded with a wheat seed of cv. Dalcahue-INIA.
In these experiences two sample treatments were used (with and without inoculum) and one commercial sample Silthiofam (Latitude®, Monsanto) in dosis of 2 L/ton of seed to compare the effectiveness of different slow release formulations or “Slow release” based on quillay extract.

Gaeumannomyces graminis = experiment: Field tests in Region IX of Chile, root rot in wheat plants; type: in vivo; settings: four field experiments, highly rainy season
Source text: This invention refers to natural fungicides used in seed treatment or soil treatment, that are obtained from quillay extract formulation, rich in saponin concentrations, to which synthetic polymers have been adhered (latex and resins) allowing its slow release in the soil, and which efficiency and control have been tested at a plant pot and field experiment level on fungus Gaeumannomyces graminis, which is the cause of take-all of wheat.

[1] = FIG. 6 experiment, Oct. 3, 2005
[2] = average of plant pot experiments

Question: With `C=CCNC(=O)c1c([Si](C)(C)C)sc(C)c1C` [Silthiofam] as the molecule, how does the “control with respect to the inoculated sample” value (Ggt; FIG. 2 experiment, seed treatment, Silthiofam 2 L/ton of seed) read?
Answer: 44%

Question: And the “control with respect to the inoculated sample” value (Ggt; FIG. 3 experiment, seed treatments, QL 1000 4 L per ha)?
Answer: 50.8%

Question: And the “Take-All Index (TAI)” value (Ggt; [1])?
Answer: 28

Question: And the “control with respect to the non-treated sample” value (Ggt; [1])?
Answer: 71%

Question: And the “Take-All Index (TAI), average among all experiences” value (Ggt; [2])?
Answer: 24.6

Question: And the “average control level with respect to the inoculated sample” value (Ggt; [2])?
Answer: 67.5%

Question: And the “effectiveness in field experiments” value (Gaeumannomyces graminis)?
Answer: did not show effectiveness
